Reference: patent US7662629B2, “Peptide scaffolds for transfer of molecules into eukaryotic cells” (Trustees of the University of Pennsylvania, priority 1998, dated 2010)

Assays:
confluent BAEC [1] = experiment: Total β-galactosidase expression measured fluorometrically in cell lysates; type: cell-based, bovine; conditions: for enhancement of β-galactosidase expression / gene transfer: lipofection; for increase in total β-galactosidase expression over transfection with plasmid alone: plasmid precomplexed with peptide, lipofectamine
Procedure: (§1) Bovine aortic endothelial cells (BAEC) (passage<10) are grown to confluence, passed to a 6-well culture dish at a split ratio of 1:3, and then grown to confluence as described by Subramanian, A. and Diamond, S. L. Tissue Engineering 3, 39-52, 1997. Growth medium is Dulbecco's modified Eagle's medium (DMEM) containing 10% heat inactivated newborn calf serum, 0.30 mg/ml of glutamine, 150 U/ml penicillin and 0.15 mg/ml streptomycin (GIBCO, Grand Island, N.Y.). Hela cells (Hela S3 ATCC No. CCL 2.2) are grown in DMEM media (Gibco BRL) supplemented with 10% fetal calf serum as described by Ranjan, V. and Diamond, S. L. Biochem. Biophys. Res. Comm. 196, 79, 1993.
(§2) Cationic liposomes (Lipofectamine Reagent, Gibco-BRL), containing a 3:1 by weight mixture of polycationic lipid 2,3-dioleoyloxy-N-[2(sperminecarboxamido)ethyl]-N,N-dimethyl-1 propanaminium trifluoroacetate (DOSPA) and the neutral lipid dioleoyl phosphatidylethanolamine (DOPE) was used in all transfections in accordance with procedures described by Subramanian, A. and Diamond, S. L. Tissue Engineering 3, 39-52, 1997. Pure liposome (10 μl) diluted to 100 μl are added to the DNA/scaffold complex, incubated for 45 minutes. Then 0.8 ml of OPTIMEM media is added to this mixture which is then overlaid on the cells. The cells are incubated for 2 hours at 37 ? C. After two hours, the mixture is aspirated, 4% serum in OPTIMEM media is added, and the cells are allowed to grow for 48 hours. The cells are then fixed and assayed for ? -gal activity. During the transfections, the cells are continuously monitored for cell viability and adhesion.
To assay for ? gal to measure % transfection, cells are stained with XGAL as described by Subramanian, A. and Diamond, S. L. Tissue Engineering 3, 39-52, 1997. The percent of cells stained per field of view is counted using a Zeiss 125M inverted microscope. The count is averaged from at least 4 fields of view for each transfected monolayer. To measure ? -gal expression quantitatively, cell lysates are prepared and tested for ? -gal activity against the fluorogenic substrate, fluorescein di- ? -D-galactopyranoside (FDG, F-1179 Molecular Probes) which is not fluorescent until cleaved to fluorescein monogalactoside and then to fluorescein (excitation/emission: 494/520 nM). For flow cytometry, the trypsinized cell suspension is supplemented with serum, pelleted (100 g) and resuspended in staining medium to approximately 10^7 cells/ml. A 100 μL cell suspension is maintained at 37 ? C and 100 μl of 2 mM FDG maintained at 37 ? C is then added to the cell suspension, mixed rapidly and incubated at 37 ? C for 1 minute. The FDG loading is stopped at the end of 1 minute by adding 1.8 mL of ice-cold staining medium containing 1.5 μM Propidium Iodide and 1 mM PETG. The cells are kept on ice prior to flow cytometer analysis using a Becton Dickinson FACScan system. Unstained BAEC cells allow compensation for autofluorescence. The histogram showing fluorescence/cell to the number of cells is used to calculate the % transfection.

confluent BAEC [2] = experiment: Flow cytometry (FDG) of confluent BAEC lipofected with pCMVβgal ± peptides; type: cell-based, bovine; conditions: 1 μg plasmid
Procedure: as §1
as §2, with “The cells are incubated for 2 hours at 37 ? C. After two hours, the mixture is aspirated, 4% serum in OPTIMEM media is added, and the cells are allowed to grow for 48 hours. The cells are then fixed and assayed for ? -gal activity.” left out, “adhesion. […]” for “adhesion.”

plasmid = experiment: Ethidium bromide fluorescence release assay of plasmid condensation; type: binding; conditions: electrostatic interactions
Source text: Several different cationic scaffolds that are rich in amine suitable for conjugation reactions and which mediate electrostatic complexation or condensation with plasmid are used. These scaffolds can include: SV40 T antigen NLS (SVT=CGYGPKKKRKVGG (SEQ ID NO:5)), a mutated version of the SV40 T antigen NLS (muT=VKKGKCRPGKGYG (SEQ ID NO:2)), poly-L-lysine (MW 1, 4, and 30-70 kDa), histone H1, and hydrophilic amine-terminated dendrimers (87,340 MW) of small size (8.4 nm) available through Polysciences, Inc. (Warrington, Pa.). These scaffolds are tested for DNA condensation using a fluorescence quench assay of ethidium bromide labeled plasmid. Synthetic peptides with a C-terminus Gly-Gly-Gly-Cys-COOH (SEQ ID NO:19) linked to M9 or KNS are grafted at 1:1 to 3:1 to the activated amine-rich scaffolds. The crosslinker succinimidyl 4-(N-maleimidomethyl)cyclohexane-1 (SMCC, Pierce) is added at a final concentration of 10 mM (at 10% DMSO) to 100 μg amine rich scaffold (pH 7.2, 25 ? C for 2 hours) to react the SMCC NHS-ester to the primary amine of the scaffold. Excess SMCC and DMSO are removed by sephadex G-15 chromatography. The activated scaffold is conjugated with equimolar or 2 to 3-fold excess of the KNS or M9 peptide at 4 μC (16 hours) by maleimide reaction with the SH moiety of the C-terminal cysteine. Individual reaction species are isolated by electroelution or FLPC. […]

CGYGPKKKRKVGG [SV40 T-antigen consensus NLS, reference compound]
enhancement of β-galactosidase expression / gene transfer (confluent BAEC [1]): A similar level of increase

NQSSNFGPMKGGNFGGRSSGPYGGGGQYFAKPRNQGGY-GGGC (NQSSNFGPMKGGNFGGRSSGPYGGGGQYFAKPRNQGGYGGGC; C-terminal GGGC extension) [M9 peptide]
increase in total β-galactosidase expression over transfection with plasmid alone (confluent BAEC [1]): 18.3 fold | percent transfection: percent of cells with fluorescence ≧100 f.u. (confluent BAEC [2]): 55%

VKKGKCRPGKGYG [ScT]
plasmid condensation (plasmid): condenses plasmid effectively | enhancement of β-galactosidase expression / gene transfer (confluent BAEC [1]): little benefit | increase in total β-galactosidase expression over transfection with plasmid alone (confluent BAEC [1]): 4 fold

polylysine [reference compound]
enhancement of β-galactosidase expression / gene transfer (confluent BAEC [1]): A similar level of increase
